The values below come from patent US8053197B2, “Methods for detecting and treating autoimmune disorders” (Oregon Health & Science University, priority 2004, dated 2011).

The subject of one experiment is PBMC. The experiment can be described thus: ELISPOT assay of IL-10 and IFN-γ secreting T cells responding to TCR CDR2 peptides. Type of experiment: cell-based, human. Particulars: for IFN-γ response: recognition by MS patients: induced IFN-γ-secreting T cells in all 5 HC; for frequency of IL-10-secreting T cells / frequency of IFN-γ secreting cells: 5 HC donors, single peptide; for response of MS patients compared with HC: expanded panel, 3 MS patients vs 5 HC. The method, then:
FIGS. 13A-13B PBMC from healthy controls (HC) and MS patients respond differentially to TCR CDR2 peptides. A. Production of IL-10 and IFN-gamma was measured in the PBMC response to TCR BV CDR2 peptides (left) and TCR AV CDR2 peptides (right) representing the entire TCR BV and AV gene repertoire as measured by ELISPOT assay. PBMC responses to ConA were equivalent in HC and MS patients (not shown). B. Summary of cytokine-producing cells in which IL-10 or IFN-gamma production was summed for responses to all BV+AV CDR2 peptides. Total cytokine production represents the summation of IL-10-+IFN-gamma-secreting cells for all peptides. *P<0.05 comparing the frequency in HC vs. MS patients. The HC group consisted of five individuals, three females and two males. The MS patient group consisted of three individuals, two females with relapsing, remitting MS, both symptomatic, and one person with secondary, progressive MS.
To determine antigen-specific T cell frequency by ELISPOT, blood mononuclear cells were separated by Ficoll density gradient centrifugation, resuspended in 2% human AB serum, and aliquotted at 0.5 and 0.25 million cells in triplicate wells of nitrocellulose-coated microliter plates (Becton Dickinson, Franklin Lakes, N.J.) pretreated with anti-IFN-γ (Mabtech, Sweden) or anti-IL-10 (PharMingen, San Diego, Calif.) mAb. Peptides, ConA, and medium were added and the plates incubated at 37C for 24 hours (IFN-γ) or 48 hours (IL-10). Biotin-labeled secondary mAb for each cytokine was added, followed by streptavidin-alkaline phosphatase (Dako Corp., Carpinteria, Calif.) and substrate (BCIP/NBT phosphatase substrate, KPL Laboratories, Gaithersburg, Md.) to develop optimal blue staining. Cytokine spots were quantified using an AID Immunospot Analyzer (AID, Cleveland, Ohio) equipped with a high resolution lens camera and analytical software designed for use with the AID system. Mean spots/well were calculated for each Ag, and net counts established after subtraction of background (no Ag). The frequency of Ag-specific spot-forming cells per million PBMC was determined from the average net response observed at two different cell concentrations. The mean net frequency +SEM was calculated for MS patients and HC, and differences compared by Student's t test for significance (p<0.05).
PBMC were removed from plates by washing with 3× with PBS and 3× with PBS/0.05% Tween, pH 7.6. To each well was added 100 μl of either anti-IFN-γ (1 μg/ml, Mabtech, Sweden) or anti-IL-10 (2 μg/ml, PharMingen, San Diego, Calif.) and incubated for 4 hours at room temperature in the dark. Plates were washed 4× with PBS/Tween, then 100 μl per well of alkaline-phosphatase-conjugated streptavidin (DAKO) (1:1000 of stock) was added and plates were incubated for 45 minutes at room temperature. Plates were washed 4× with PBS/Tween and 6× with PBS, 1 minute each. 100 μl of BCIP/NBT substrate (KPL Laboratories, Gaithersburg, Md.) was added and the color reaction was allowed to develop for 3-7 minutes. Plates were rinsed 3× with distilled water and dried overnight at room temperature.
Plates were scanned with an Immunospot Reader (Cellular Technology Limited, Cleveland, Ohio) with optimized lighting conditions and analyzed according to the predetermined parameters of sensitivity, spot size, and background. The background counts were subtracted, and data was then normalized to cytokine secreting cells per million PBMC plated.
To evaluate native recognition of TCR determinants, the frequency of IL-10 and IFN-γ secreting T cells from the blood of 5 HC (3 females, 2 males, average age 28) was assessed using the ELISPOT assay, to detect responses to a comprehensive panel of 113 unique CDR2 peptides representing nearly all of the AV and BV repertoires (Table 1). Only 3 peptides, AV1 S4A1N1T, BV1551 and BV20S1A1N1, could not be tested due to solubility and toxicity problems. […]

In experiment [1] the test system is CD4+CD25+ versus CD4+CD25− populations. The experiment can be described thus: Proliferation of CD4+CD25+ versus CD4+CD25− populations stimulated with TCR peptide pool or control antigens. It counts as cell-based, human. Particulars: HC donors with measurable Treg activity. An excerpt:
To establish a connection between TCR-reactive T cells and Treg cells, whether TCR reactivity could be found in the CD4+CD25+ Treg cell subpopulation isolated directly from HC was first determined. Thus, CD4+CD25+ versus CD4+CD25− populations were isolated and stimulated with a pool of eight TCR CDR2 peptides that optimally distinguished differences in IL-10 responses between HC and MS patients (designated as Pool #1), or with control antigens, including Copolymer 1, a pool of neuropeptide antigens, and the recall antigen, TT. […] In addition, five treatment-naïve MS patients had no response to Pool #1 peptides in either the CD4+CD25+ or CD4+CD25− fractions and also had no detectable Treg activity. Six MS patients undergoing standard treatment also lacked response to Pool #1 peptides and Treg activity.

Take “ALGQGPQFIFQTYEEEERQRG (TCR CDR2 peptide.) [BV5S2]”: in the experiment on PBMC, the “frequencies of IL-10-secreting PBMC in MS patients versus HC” value was “significantly lower”.
Turning to “DLGHGLRLIHYSYGVKDTNKG (TCR CDR2 peptide.) [BV12S2A2T]”, in the experiment with PBMC, the “IFN-γ response: recognition by MS patients” value (“IFN-γ response: recognition” for short) was “poorly recognized”.
For the substance “DLGHGLRLIHYSYGVQDTNKG (TCR CDR2 peptide.) [BV12S2A1T]”, the “IFN-γ response: recognition” value with PBMC is reported as “poorly recognized”.
For the substance Glatiramer acetate [Cop-1], the “proliferation of CD4+CD25+ compared with CD4+CD25− population” value in experiment [1] was “no proliferative response above background”.
On to “KHGEAPVFLMILLKGGEQKGH (TCR CDR2 peptide.) [AV29S1A2T]”, for which, in the experiment with PBMC, the “frequency of IL-10-secreting T cells” value is recorded as more than 1000 cells/million PBMC and the “response of MS patients compared with HC” value was “as well or better than HC”.
Consider “KLEEELKFLVYFQNEELIQKA (TCR CDR2 peptide.) [BV10S1P]”, for which, in the experiment on PBMC, the “frequency of IFN-γ secreting cells” value is “minimal frequencies” and the “frequency of IL-10-secreting T cells” value is on record as more than 2000 cells/million PBMC.
For the substance “NQNKEFMLLISFQNEQVLQET (TCR CDR2 peptide.) [BV19S1P]”, the “frequency of IFN-γ secreting cells” value in the experiment on PBMC was determined as 900 cells/million PBMC.
For “SSGEMIFLIYQGSYDQQNATE (TCR CDR2 peptide.) [ADV6S1A1N1]”, in the experiment with PBMC, the “IFN-γ response: recognition” value is “poorly recognized”.
As for TT: the recall antigen, TT, in experiment [1], the “proliferation of CD4+CD25+ compared with CD4+CD25− population” value is listed as “present mainly in the CD4+CD25− fraction”.
Regarding “YPNQGLQLLLKYTSAATLVKG (TCR CDR2 peptide.) [AV1S2A1N1T]”, in the experiment with PBMC, the “response of MS patients compared with HC” value was “as well or better than HC”.
